We go through 17 compounds from patent publication US20260297070A1, “CYCLIC [COMPOUND LEFT OUT] WRN INHIBITORS” (Nimbus Wadjet, Inc., priority 2023, published 2026).

The target of the assay is T1, human Werner helicase (WRN-BV08, Uniprot Q14191, amino acids 517-1235 with L1074F point mutation) (Homo sapiens, UniProt Q14191, L1074F).
T1 construct: Uniprot Q14191, amino acids 517-1235 with L1074F point mutation; TEV-cleavable 8×His (C, cleaved yes); made in house; host or cells: Sf9 insect cells (baculovirus)
T1 sequence (Q14191 with tags, fused parts or gaps L1074F limits assumed): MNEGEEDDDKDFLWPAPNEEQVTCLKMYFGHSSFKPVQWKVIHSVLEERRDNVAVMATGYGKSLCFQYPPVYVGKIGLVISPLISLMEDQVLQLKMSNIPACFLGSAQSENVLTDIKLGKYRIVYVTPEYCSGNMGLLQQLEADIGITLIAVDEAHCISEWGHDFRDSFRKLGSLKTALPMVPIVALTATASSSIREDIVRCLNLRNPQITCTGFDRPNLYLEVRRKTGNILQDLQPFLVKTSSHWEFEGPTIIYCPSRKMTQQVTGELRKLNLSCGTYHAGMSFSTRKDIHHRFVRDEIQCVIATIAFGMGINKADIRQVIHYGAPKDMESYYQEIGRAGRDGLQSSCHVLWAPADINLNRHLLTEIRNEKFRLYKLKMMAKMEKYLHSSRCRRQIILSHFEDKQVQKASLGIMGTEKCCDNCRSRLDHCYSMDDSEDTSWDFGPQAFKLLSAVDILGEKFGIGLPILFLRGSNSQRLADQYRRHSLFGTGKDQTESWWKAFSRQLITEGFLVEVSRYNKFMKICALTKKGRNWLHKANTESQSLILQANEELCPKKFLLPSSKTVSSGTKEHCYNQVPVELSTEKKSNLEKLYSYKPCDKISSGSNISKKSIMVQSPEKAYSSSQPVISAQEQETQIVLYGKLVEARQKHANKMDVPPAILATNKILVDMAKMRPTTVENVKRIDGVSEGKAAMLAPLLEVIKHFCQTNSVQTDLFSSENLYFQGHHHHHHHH
Briefly: WRN (BV08) ADP-Glo Assay. The note with it: 0.15 nM WRN, 5 μM ATP, 0.1 nM DNA duplex, 15 min preincubation, 60 min at 25° C., pH 7.5, 1% DMSO; read-out: ADP-Glo_hWRN_IC50. It is filed as biochemical. The method in brief:
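Helicase ATPase activity is measured at 25 °C over 60 min using 0.15 nM enzyme, 5 μM ATP and 0.1 nM DNA duplex, final DMSO 1%. ADP production is detected by luminescence, with IC50 derived by curve fitting.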
In general terms: ADP-Glo first removes unused ATP, then detects ADP through luciferase.

Turning to `CN(C)C(=O)C(C(=O)N(Cc1ccncc1)C1C=CS(=O)(=O)C1)c1ccc(-c2ccc(F)cc2)cc1` (centres unmarked) [I-104, N′-(1,1-dioxo-2,3-dihydro-1lambda6-thiophen-3-yl)-2-{4′-fluoro-[1,1′-biphenyl]-4-yl}-N,N-dimethyl-N′-[(pyridin-4-yl)methyl]propanediamide], the IC50 fell in the range of 0.5 to 5 µM.

Consider `CC(C)(O)c1cc(CN(C(=O)Cc2ccc(-c3ccc(F)cc3)cc2Cl)C2C=CS(=O)(=O)C2)ccn1` (centres unmarked) [I-101, 2-{3-chloro-4′-fluoro-[1,1′-biphenyl]-4-yl}-N-(1,1-dioxo-2,3-dihydro-1lambda6-thiophen-3-yl)-N-{[2-(2-hydroxypropan-2-yl)pyridin-4-yl]methyl}acetamide], for which the IC50 fell in the range of 0.5 to 5 µM.

With `C#CCN(C)C(=O)c1ccc(CN(C(=O)Cc2ccc(-n3cccc3)cc2F)C2C=CS(=O)(=O)C2)cc1` (centres unmarked) [I-153, 4-{[N-(1,1-dioxo-2,3-dihydro-1lambda6-thiophen-3-yl)-2-[2-fluoro-4-(1H-pyrrol-1-yl)phenyl]acetamido]methyl}-N-methyl-N-(prop-2-yn-1-yl)benzamide], the IC50 is 0.5 to 5 µM.

On to `CC(C(=O)N(Cc1ccnc(C(C)(C)O)c1)[C@@H]1C=CS(=O)(=O)C1)n1cc(-c2ccc(F)cc2)cn1` (stereo partly drawn) [I-106, N-[(3R)-1,1-dioxo-2,3-dihydro-1lambda6-thiophen-3-yl]-2-[4-(4-fluorophenyl)-1H-pyrazol-1-yl]-N-{[2-(2-hydroxypropan-2-yl)pyridin-4-yl]methyl}propanamide], for which the IC50 was 0.5 to 5 µM.

Consider `O=C(Cc1ccc(S(F)(F)(F)(F)F)cc1)N(Cc1nc(C(F)F)cs1)C1C=CS(=O)(=O)C1` (centres unmarked) [I-729, N-{[4-(difluoromethyl)-1,3-thiazol-2-yl]methyl}-N-(1,1-dioxo-2,3-dihydro-1lambda6-thiophen-3-yl)-2-[4-(pentafluoro-lambda6-sulfanyl)phenyl]acetamide], for which the IC50 was > 50 µM.

For the compound `O=C(Cc1ccc(OCc2ccccc2)cc1)N(Cc1ccncc1)C1C=CS(=O)(=O)C1` (centres unmarked) [I-501, 2-[4-(benzyloxy)phenyl]-N-(1,1-dioxo-2,3-dihydro-1lambda6-thiophen-3-yl)-N-[(pyridin-4-yl)methyl]acetamide], the IC50 was > 50 µM.

Turning to `N#CCCN(C(=O)Cc1ccc(-c2ccc(F)cc2)cc1)C1C=CS(=O)(=O)C1` (centres unmarked) [I-386, N-(2-cyanoethyl)-N-(1,1-dioxo-2,3-dihydro-1lambda6-thiophen-3-yl)-2-{4′-fluoro-[1,1′-biphenyl]-4-yl}acetamide], the IC50 was > 50 µM.

Take `O=C(C1CCc2cc(Cl)ccc2O1)N(Cc1ccncc1)C1C=CS(=O)(=O)C1` (centres unmarked) [I-653, 6-chloro-N-(1,1-dioxo-2,3-dihydro-1lambda6-thiophen-3-yl)-N-[(pyridin-4-yl)methyl]-3,4-dihydro-2H-1-benzopyran-2-carboxamide]: the IC50 was > 50 µM.

For `CC(C)(O)c1cc(CN(C(=O)Cn2ccc(-c3ccc(F)c(F)c3)cc2=O)[C@@H]2C=CS(=O)(=O)C2)ccn1` [I-13, (R)-2-(4-(3,4-difluorophenyl)-2-oxopyridin-1(2H)-yl)-N-(1,1-dioxido-2,3-dihydrothiophen-3-yl)-N-((2-(2-hydroxypropan-2-yl)pyridin-4-yl)methyl)acetamide], the IC50 was < 0.5 µM.

Regarding `O=C(c1ccc(CN(C(=O)Cc2ccc(-c3ccc(F)c(F)c3)cc2F)C2C=CS(=O)(=O)C2)cc1)N1CCCCC1` (centres unmarked) [I-796, N-(1,1-dioxo-2,3-dihydro-1lambda6-thiophen-3-yl)-N-{[4-(piperidine-1-carbonyl)phenyl]methyl}-2-{3,3′,4′-trifluoro-[1,1′-biphenyl]-4-yl}acetamide], the IC50 lay in the range of 0.5 to 5 µM.

In the case of `O=C(N[C@H](Cc1c[nH]c2ccccc12)C(=O)N(Cc1ccncc1)C1C=CS(=O)(=O)C1)C1CC1` (stereo partly drawn) [I-397, (2R)-2-(cyclopropylformamido)-N-(1,1-dioxo-2,3-dihydro-1lambda6-thiophen-3-yl)-3-(1H-indol-3-yl)-N-[(pyridin-4-yl)methyl]propanamide], the IC50 was > 50 µM.

In the case of `COc1cc(CN(C(=O)C(OCC2COC2)c2ccc(-c3ccc(F)c(F)c3)cc2F)[C@@H]2C=CS(=O)(=O)C2)ccn1` (stereo partly drawn) [I-807, N-[(3R)-1,1-dioxo-2,3-dihydro-1lambda6-thiophen-3-yl]-N-[(2-methoxypyridin-4-yl)methyl]-2-[(oxetan-3-yl)methoxy]-2-{3,3′,4′-trifluoro-[1,1′-biphenyl]-4-yl}acetamide], the IC50 was in the range of 5 to 10 µM.

Turning to `CCN(C)C(=O)C(C(=O)N(Cc1ccnc(C(C)(C)O)c1)C1C=CS(=O)(=O)C1)c1ccc(-c2ccc(F)c(F)c2)cc1F` (centres unmarked) [I-75, N′-(1,1-dioxo-2,3-dihydro-1lambda6-thiophen-3-yl)-N-ethyl-N′-{[2-(2-hydroxypropan-2-yl)pyridin-4-yl]methyl}-N-methyl-2-{3,3′,4′-trifluoro-[1,1′-biphenyl]-4-yl}propanediamide], the IC50 is < 0.5 µM.

With `Cc1cccn1-c1ccc(CC(=O)N(Cc2ccnnc2)C2C=CS(=O)(=O)C2)c(F)c1` (centres unmarked) [I-150, N-(1,1-dioxo-2,3-dihydro-1lambda6-thiophen-3-yl)-2-[2-fluoro-4-(2-methyl-1H-pyrrol-1-yl)phenyl]-N-[(pyridazin-4-yl)methyl]acetamide], the IC50 was in the range of 0.5 to 5 µM.

In the case of `COc1cc(CN(C(=O)C(OC2CCN(S(C)(=O)=O)CC2)c2ccc(-c3ccc(F)c(F)c3)cc2F)[C@@H]2C=CS(=O)(=O)C2)ccn1` (stereo partly drawn) [I-687, N-[(3R)-1,1-dioxo-2,3-dihydro-1lambda6-thiophen-3-yl]-2-[(1-methanesulfonylpiperidin-4-yl)oxy]-N-[(2-methoxypyridin-4-yl)methyl]-2-{3,3′,4′-trifluoro-[1,1′-biphenyl]-4-yl}acetamide], the IC50 fell in the range of 5 to 10 µM.

On to `O=C(Cc1cccc2ccccc12)N(Cc1ccncc1)C1C=CS(=O)(=O)C1` (centres unmarked) [I-431, N-(1,1-dioxo-2,3-dihydro-1lambda6-thiophen-3-yl)-2-(naphthalen-1-yl)-N-[(pyridin-4-yl)methyl]acetamide], for which the IC50 is > 50 µM.

As for `O=C(C(C(=O)N(Cc1ccncc1)C1C=CS(=O)(=O)C1)c1ccc(-c2ccc(F)cc2)cc1)N1CCCC1` (centres unmarked) [I-125, N-(1,1-dioxo-2,3-dihydro-1lambda6-thiophen-3-yl)-2-{4′-fluoro-[1,1′-biphenyl]-4-yl}-3-oxo-N-[(pyridin-4-yl)methyl]-3-(pyrrolidin-1-yl)propanamide], the IC50 was in the range of 0.5 to 5 µM.
